Data reported in patent US20250346585A1 (Alexion Pharmaceuticals, Inc., priority 2022, published 2025).

Biological target: Human complement C1s enzyme (Homo sapiens (Human), UniProt P09871)
Experiment: Human C1s enzyme assay
Format: biochemical
Settings: Human C1s enzyme assay of Example 3; read-out: IC50 (Stars)
Experimental: Human complement C1s enzyme (purified from human serum, Complement Technology, Inc.) at 1.16 nM final concentration was incubated with test compound at various concentrations for 5 min at room temperature in 50 mM Tris, 1 M NaCl, pH 7.5. A synthetic substrate Z-L-Lys-SBzl and DTNB (Ellman's reagent) were added to final concentrations of 100 μM each. Absorbance at 405 nm (A405) was recorded at 30 second intervals for 30 min using a microplate spectrophotometer. IC50 values were calculated by nonlinear regression of complement C1s reaction rates as a function of test compound concentration.

Chain of Human complement C1s enzyme (P09871 438-688 limits assumed): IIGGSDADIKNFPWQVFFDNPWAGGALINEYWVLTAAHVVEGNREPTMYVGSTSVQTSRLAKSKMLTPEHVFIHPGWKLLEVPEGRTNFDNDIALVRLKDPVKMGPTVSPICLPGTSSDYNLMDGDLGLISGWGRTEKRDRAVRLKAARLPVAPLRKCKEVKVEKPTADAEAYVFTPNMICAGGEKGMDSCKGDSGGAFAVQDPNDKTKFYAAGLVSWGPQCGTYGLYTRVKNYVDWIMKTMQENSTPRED
Chain of Human complement C1s enzyme (P09871 16-437 partner limits assumed): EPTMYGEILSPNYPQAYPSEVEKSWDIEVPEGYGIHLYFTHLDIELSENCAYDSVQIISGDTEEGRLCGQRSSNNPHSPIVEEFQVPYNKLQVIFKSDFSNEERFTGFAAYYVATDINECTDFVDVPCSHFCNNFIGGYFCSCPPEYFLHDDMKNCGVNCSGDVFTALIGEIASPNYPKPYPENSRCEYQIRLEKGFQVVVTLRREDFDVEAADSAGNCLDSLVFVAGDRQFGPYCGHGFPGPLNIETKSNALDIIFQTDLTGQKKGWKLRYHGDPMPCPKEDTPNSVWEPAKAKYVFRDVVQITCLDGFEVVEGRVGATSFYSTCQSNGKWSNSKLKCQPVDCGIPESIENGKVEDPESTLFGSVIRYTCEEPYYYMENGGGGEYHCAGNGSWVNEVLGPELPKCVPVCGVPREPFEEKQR

IC50, < 100 nM:
C[C@H](O)[C@H](O)[C@@H](O)[C@@H](O)CNCC(=O)NCCOC[C@@]12C[C@@H]1N(C(=O)CNC(=O)CCCOc1ccccc1)[C@H](C(=O)N[C@H](C)c1cc(C(=N)N)cs1)C2 [Compound 2, (1S,3S,5R)—N—((R)-1-(4-carbamimidoylthiophen-2-yl)ethyl)-2-((4-phenoxybutanoyl)glycyl)-5-((2-(2-(((2S,3S,4S,5S)-2,3,4,5-tetrahydroxyhexyl)amino)acetamido)ethoxy)methyl)-2-azabicyclo[3.1.0]hexane-3-carboxamide]
N=C(N)c1csc(CNC(=O)[C@@H]2C[C@@H](OC(F)F)CN2C(=O)CNC(=O)c2ccc(Oc3ccc(F)cc3)cc2)c1 [Compound 3, (2S,4R)—N-((4-carbamimidoylthiophen-2-yl)methyl)-4-(difluoromethoxy)-1-((4-(4-fluorophenoxy)benzoyl)glycyl)pyrrolidine-2-carboxamide]
C[C@@H](NC(=O)[C@@H]1C[C@]2(C)C[C@@H]2N1C(=O)CNC(=O)c1ccc2c(c1)-c1ccccc1C2(F)F)c1cc(C(=N)N)cs1 [Compound 4, (1S,3S,5S)—N—((R)-1-(4-carbamimidoylthiophen-2-yl)ethyl)-2-((9,9-difluoro-9H-fluorene-3-carbonyl)glycyl)-5-methyl-2-azabicyclo[3.1.0]hexane-3-carboxamide]
C[C@@H](NC(=O)[C@@H]1C[C@@H](OC(F)F)CN1C(=O)CNC(=O)c1ccc(Oc2ccc(C(F)(F)F)cc2)cc1)c1cc(C(=N)N)cs1 [Compound 5, (2S,4R)—N—((R)-1-(4-carbamimidoylthiophen-2-yl)ethyl)-4-(difluoromethoxy)-1-((4-(4-(trifluoromethyl)phenoxy)benzoyl)glycyl)pyrrolidine-2-carboxamide]
Cc1ccc(Oc2ccc(C(=O)NCC(=O)N3C[C@H](OC(F)F)C[C@H]3C(=O)N[C@H](C)c3cc(C(=N)N)cs3)cc2)cc1 [Compound 6, (2S,4R)—N—((R)-1-(4-carbamimidoylthiophen-2-yl)ethyl)-4-(difluoromethoxy)-1-((4-(p-tolyloxy)benzoyl)glycyl)pyrrolidine-2-carboxamide]
Cc1ccc(Oc2ccc(C(=O)NCC(=O)N3[C@H]4C[C@@]4(C)C[C@H]3C(=O)N[C@H](C)c3cc(C(=N)N)cs3)cc2)cc1 [Compound 7, (1S,3S,5S)—N—((R)-1-(4-carbamimidoylthiophen-2-yl)ethyl)-5-methyl-2-((4-(p-tolyloxy)benzoyl)glycyl)-2-azabicyclo[3.1.0]hexane-3-carboxamide]
C[C@@H](NC(=O)[C@@H]1C[C@@H](OC(F)F)CN1C(=O)CNC(=O)c1ccc(Oc2ccc(F)cc2)cc1)c1cc(C(=N)N)cs1 [Compound 8, (2S,4R)—N—((R)-1-(4-carbamimidoylthiophen-2-yl)ethyl)-4-(difluoromethoxy)-1-((4-(4-fluorophenoxy)benzoyl)glycyl)pyrrolidine-2-carboxamide]
C[C@@H](NC(=O)[C@@H]1C[C@@H](OC(F)F)CN1C(=O)CNC(=O)c1ccc2c(c1)-c1ccccc1C2(F)F)c1cc(C(=N)N)cs1 [Compound 9, (2S,4R)—N—((R)-1-(4-carbamimidoylthiophen-2-yl)ethyl)-1-((9,9-difluoro-9H-fluorene-3-carbonyl)glycyl)-4-(difluoromethoxy)pyrrolidine-2-carboxamide]
Cc1ccc(Oc2ccc(C(=O)NCC(=O)N3C[C@H](OC(F)F)C[C@H]3C(=O)NCc3cc(C(=N)N)cs3)cc2)cc1 [Compound 10, (2S,4R)—N-((4-carbamimidoylthiophen-2-yl)methyl)-4-(difluoromethoxy)-1-((4-(p-tolyloxy)benzoyl)glycyl)pyrrolidine-2-carboxamide]
C[C@@H](NC(=O)[C@@H]1C[C@](F)(CF)CN1C(=O)CNC(=O)c1ccc2c(c1)-c1ccccc1C2(F)F)c1cc(C(=N)N)cs1 [Compound 11, (2S,4R)—N-[(1R)-1-(4-carbamimidoylthiophen-2-yl)ethyl]-1-{2-[(9,9-difluorofluoren-3-yl)formamido]acetyl}-4-fluoro-4-(fluoromethyl) pyrrolidine-2-carboxamide]
C[C@@H](NC(=O)[C@@H]1C[C@](F)(CF)CN1C(=O)CNC(=O)c1ccc2c(c1)-c1ccccc1C2)c1cc(C(=N)N)cs1 [Compound 12, (2S,4R)—N-[(1R)-1-(4-carbamimidoylthiophen-2-yl)ethyl]-1-[2-(9H-fluoren-3-ylformamido)acetyl]-4-fluoro-4-(fluoromethyl)pyrrolidine-2-carboxamide]
C[C@@H](NC(=O)[C@@H]1C[C@](F)(CF)CN1C(=O)CNC(=O)c1ccc(Oc2ccc(F)cc2)cc1)c1cc(C(=N)N)cs1 [Compound 13]
Cc1ccc(Oc2ccc(C(=O)NCC(=O)N3C[C@@](F)(CF)C[C@H]3C(=O)N[C@H](C)c3cc(C(=N)N)cs3)cc2)cc1 [Compound 14, (2S,4R)—N—((R)-1-(4-carbamimidoylthiophen-2-yl)ethyl)-4-fluoro-4-(fluoromethyl)-1-((4-(p-tolyloxy)benzoyl)glycyl)pyrrolidine-2-carboxamide]
C[C@@H](NC(=O)[C@@H]1C[C@](F)(CF)CN1C(=O)CNC(=O)c1ccc(Oc2ccc(C(F)(F)F)cc2)cc1)c1cc(C(=N)N)cs1 [Compound 15, (2S,4R)—N-[(1R)-1-(4-carbamimidoylthiophen-2-yl)ethyl]-4-fluoro-4-(fluoromethyl)-1-[2-({4-[4-(trifluoromethyl)phenoxy]phenyl}formamido)acetyl]pyrrolidine-2-carboxamide]
C[C@@H](NC(=O)[C@@H]1C[C@]2(C)C[C@@H]2N1C(=O)CNC(=O)c1ccc(Oc2ccc(F)cc2)cc1)c1cc(C(=N)N)cs1 [Compound 16, (1S,3S,5S)—N-[(1R)-1-(4-carbamimidoylthiophen-2-yl)ethyl]-2-(2-{[4-(4-fluorophenoxy)phenyl]formamido}acetyl)-5-methyl-2-azabicyclo[3.1.0]hexane-3-carboxamide]
COC[C@@]1(F)C[C@@H](C(=O)N[C@H](C)c2cc(C(=N)N)cs2)N(C(=O)CNC(=O)c2ccc(Oc3ccc(F)cc3)cc2)C1 [Compound 17, (2S,4R)—N—((R)-1-(4-carbamimidoylthiophen-2-yl)ethyl)-4-fluoro-1-((4-(4-fluorophenoxy)benzoyl)glycyl)-4-(methoxymethyl)pyrrolidine-2-carboxamide]
COC[C@@]1(F)C[C@@H](C(=O)N[C@H](C)c2cc(C(=N)N)cs2)N(C(=O)CNC(=O)c2ccc(Oc3ccc(C(F)(F)F)cc3)cc2)C1 [Compound 18, (2S,4R)—N—((R)-1-(4-carbamimidoylthiophen-2-yl)ethyl)-4-fluoro-4-(methoxymethyl)-1-((4-(4-(trifluoromethyl)phenoxy)benzoyl)glycyl)pyrrolidine-2-carboxamide]
COC[C@@]1(F)C[C@@H](C(=O)N[C@H](C)c2cc(C(=N)N)cs2)N(C(=O)CNC(=O)c2ccc(Oc3ccc(C)cc3)cc2)C1 [Compound 19, (2S,4R)—N—((R)-1-(4-carbamimidoylthiophen-2-yl)ethyl)-4-fluoro-4-(methoxymethyl)-1-((4-(p-tolyloxy)benzoyl)glycyl)pyrrolidine-2-carboxamide]
COC[C@@]1(F)C[C@@H](C(=O)N[C@H](C)c2cc(C(=N)N)cs2)N(C(=O)CNC(=O)c2ccc3c(c2)-c2ccccc2C3(F)F)C1 [Compound 20, (2S,4R)—N—((R)-1-(4-carbamimidoylthiophen-2-yl)ethyl)-1-((9,9-difluoro-9H-fluorene-3-carbonyl)glycyl)-4-fluoro-4-(methoxymethyl)pyrrolidine-2-carboxamide]
C[C@@H](NC(=O)[C@@H]1CC2(CN1C(=O)CNC(=O)c1ccc3c(c1)-c1ccccc1C3(F)F)OCCO2)c1cc(C(=N)N)cs1 [Compound 21, (S)—N—((R)-1-(4-carbamimidoylthiophen-2-yl)ethyl)-7-((9,9-difluoro-9H-fluorene-3-carbonyl)glycyl)-1,4-dioxa-7-azaspiro[4.4]nonane-8-carboxamide]
Cc1ccc(Oc2ccc(C(=O)NCC(=O)N3CC4(C[C@H]3C(=O)N[C@H](C)c3cc(C(=N)N)cs3)OCCO4)cc2)cc1 [Compound 22, (S)—N—((R)-1-(4-carbamimidoylthiophen-2-yl)ethyl)-7-((4-(p-tolyloxy)benzoyl)glycyl)-1,4-dioxa-7-azaspiro[4.4]nonane-8-carboxamide]
C[C@@H](NC(=O)[C@@H]1CC2(CN1C(=O)CNC(=O)c1ccc(Oc3ccc(F)cc3)cc1)OCCO2)c1cc(C(=N)N)cs1 [Compound 23, (S)—N—((R)-1-(4-carbamimidoylthiophen-2-yl)ethyl)-7-((4-(4-fluorophenoxy)benzoyl)glycyl)-1,4-dioxa-7-azaspiro[4.4]nonane-8-carboxamide]
Cc1cc(C(=O)NCC(=O)N2C[C@H](OC(F)F)C[C@H]2C(=O)N[C@H](C)c2cc(C(=N)N)cs2)ccc1Oc1ccccc1 [Compound 24, (2S,4R)—N—((R)-1-(4-carbamimidoylthiophen-2-yl)ethyl)-4-(difluoromethoxy)-1-((3-methyl-4-phenoxybenzoyl)glycyl)pyrrolidine-2-carboxamide]
Cc1ccc(Oc2ccc(C(=O)NCC(=O)N3[C@H]4C[C@@]4(C)C[C@H]3C(=O)N[C@H](C)c3cc(C(=N)N)cs3)cc2C)cc1 [Compound 25, (1S,3S,5S)—N—((R)-1-(4-carbamimidoylthiophen-2-yl)ethyl)-5-methyl-2-((3-methyl-4-(p-tolyloxy)benzoyl)glycyl)-2-azabicyclo[3.1.]hexane-3-carboxamide]
